Test results published in ChEMBL document CHEMBL4321812, “Structure-based rational design of staurosporine-based fluorescent probe with broad-ranging kinase affinity for kinase panel application” (Bioorg Med Chem Lett, 2019).

Legend:
[1] = target: Calcium/calmodulin-dependent protein kinase type II subunit delta (Homo sapiens, UniProt Q13557); assay: Binding affinity to recombinant human full-length N-terminal GST-tagged CAMK2D expressed in baculovirus expression system using GS peptide as substrate incubated for 1 hr by TR-FRET assay
[2] = target: Protein kinase C alpha type (Homo sapiens, UniProt P17252); assay: Binding affinity to recombinant full-length N-terminal His-FLAG-GST-tagged PRKCA (unknown origin) expressed in baculovirus infected Sf9 insect cells incubated for 1 hr by TR-FRET assay
[3] = target: CDK7/Cyclin H/MNAT1 (Homo sapiens, UniProt P50613); assay: Binding affinity to recombinant human full length N-terminal GST-tagged and N-terminal GST-tagged CDK7/cyclinH/MAT1 expressed in baculovirus expression system using CTD3 peptide as substrate incubated for 1 hr by TR-FRET assay
[4] = target: Mitogen-activated protein kinase kinase kinase 5 (Homo sapiens, UniProt Q99683); assay: Binding affinity to recombinant full-length N-terminal His-FLAG-GST-tagged MAP3K5 (unknown origin) (654 to 971 residues) expressed in baculovirus infected Sf9 insect cells incubated for 1 hr by TR-FRET assay
[5] = target: Tyrosine-protein kinase Yes (Homo sapiens, UniProt P07947); assay: Binding affinity to recombinant full-length N-terminal His-FLAG-GST-tagged YES1 (unknown origin) expressed in baculovirus infected Sf9 insect cells incubated for 1 hr by TR-FRET assay
[6] = target: ALK tyrosine kinase receptor (Homo sapiens, UniProt Q9UM73); assay: Binding affinity to recombinant human […] N-terminal GST-tagged ALK (1058 to 1620 residues) expressed in baculovirus expression system using Srctide as substrate incubated for 1 hr by TR-FRET assay
[7] = target: Myotonin-protein kinase (Homo sapiens, UniProt Q09013); assay: Binding affinity to recombinant full-length N-terminal His-FLAG-GST-tagged DMPK (unknown origin) expressed in baculovirus infected Sf9 insect cells incubated for 1 hr by TR-FRET assay
[8] = target: Tyrosine-protein kinase Blk (Homo sapiens, UniProt P51451); assay: Binding affinity to recombinant human full length N-terminal GST-tagged BLK expressed in baculovirus expression system using srctide as substrate incubated for 1 hr by TR-FRET assay
[9] = target: Serine/threonine-protein kinase 3 (Homo sapiens, UniProt Q13188); assay: Binding affinity to recombinant full-length N-terminal His-FLAG-GST-tagged STK3 (unknown origin) expressed in baculovirus infected Sf9 insect cells incubated for 1 hr by TR-FRET assay
[10] = target: Ephrin type-A receptor 1 (Homo sapiens, UniProt P21709); assay: Binding affinity to recombinant full-length N-terminal His-FLAG-GST-tagged EPHA1 (unknown origin) (586 to 976 residues) expressed in baculovirus infected Sf9 insect cells incubated for 1 hr by TR-FRET assay
[11] = target: TRAF2 and NCK-interacting protein kinase (Homo sapiens, UniProt Q9UKE5); assay: Binding affinity to recombinant full-length N-terminal His-FLAG-GST-tagged TNIK (unknown origin) (1 to 314 residues) expressed in baculovirus infected Sf9 insect cells incubated for 1 hr by TR-FRET assay
[12] = target: Calcium/calmodulin-dependent protein kinase type II subunit alpha (Homo sapiens, UniProt Q9UQM7); assay: Binding affinity to recombinant human full-length N-terminal GST-tagged CAMK2A expressed in baculovirus expression system using GS peptide as substrate incubated for 1 hr in presence of calmodulin by TR-FRET assay
[13] = target: Insulin receptor (Homo sapiens, UniProt P06213); assay: Binding affinity to recombinant full-length N-terminal His-FLAG-GST-tagged INSR (unknown origin) (1005 to 1310 residues) expressed in baculovirus infected Sf9 insect cells incubated for 1 hr by TR-FRET assay
[14] = target: Homeodomain-interacting protein kinase 4 (Homo sapiens, UniProt Q8NE63); assay: Binding affinity to recombinant full-length N-terminal His-FLAG-tagged HIPK4 (unknown origin) expressed in baculovirus infected Sf9 insect cells incubated for 1 hr by TR-FRET assay
[15] = target: Protein-tyrosine kinase 2-beta (Homo sapiens, UniProt Q14289); assay: Binding affinity to recombinant full-length N-terminal His-FLAG-tagged PTK2B (unknown origin) expressed in baculovirus infected Sf9 insect cells incubated for 1 hr by TR-FRET assay
[16] = target: Serine/threonine-protein kinase PAK 5 (Homo sapiens, UniProt Q9P286); assay: Binding affinity to recombinant N-terminal His-FLAG-GST-tagged PAK7 (unknown origin) (425 to 719 residues) expressed in baculovirus infected Sf9 insect cells incubated for 1 hr by TR-FRET assay
[17] = target: Calcium/calmodulin-dependent protein kinase kinase 1 (Homo sapiens, UniProt Q8N5S9); assay: Binding affinity to recombinant full-length N-terminal His-FLAG-GST-tagged CAMKK1 (unknown origin) expressed in baculovirus infected Sf9 insect cells incubated for 1 hr in presence of calmodulin by TR-FRET assay
[18] = target: High affinity nerve growth factor receptor (Homo sapiens, UniProt P04629); assay: Binding affinity to recombinant full-length N-terminal His-FLAG-GST-tagged NTRK1 (unknown origin) (436 to 790 residues) expressed in baculovirus infected Sf9 insect cells incubated for 1 hr by TR-FRET assay
[19] = target: cAMP-dependent protein kinase catalytic subunit alpha (Homo sapiens, UniProt P17612); assay: Binding affinity to recombinant human full length N-terminal GST-tagged PRKACA expressed in baculovirus expression system using kemptide as substrate incubated for 1 hr by TR-FRET assay
[20] = target: Tyrosine-protein kinase ITK/TSK (Homo sapiens, UniProt Q08881); assay: Binding affinity to recombinant human full-length N-terminal GST-tagged ITK expressed in baculovirus expression system using srctide as substrate incubated for 1 hr by TR-FRET assay
[21] = target: Serine/threonine-protein kinase 26 (Homo sapiens, UniProt Q9P289); assay: Binding affinity to recombinant full-length N-terminal His-FLAG-tagged MST4 (unknown origin) expressed in baculovirus infected Sf9 insect cells incubated for 1 hr by TR-FRET assay
[22] = target: Serine/threonine-protein kinase ULK1 (Homo sapiens, UniProt O75385); assay: Binding affinity to recombinant N-terminal His-FLAG-GST-tagged ULK1 (unknown origin) (1 to 649 residues) expressed in baculovirus infected Sf9 insect cells incubated for 1 hr by TR-FRET assay
[23] = target: NUAK family SNF1-like kinase 2 (Homo sapiens, UniProt Q9H093); assay: Binding affinity to recombinant full-length N-terminal His-FLAG-tagged NUAK2 (unknown origin) expressed in baculovirus infected Sf9 insect cells incubated for 1 hr by TR-FRET assay
[24] = target: AMP-activated protein kinase (AMPK) alpha-1/beta-1/gamma-1 (Homo sapiens, UniProt P54619+Q13131+Q9Y478); assay: Binding affinity to recombinant human full-length GST N-Terminal tagged-AMPK alpha1/N-Terminal GST tagged-AMPK beta1/N-Terminal his-tagged AMPK gamma1 expressed in baculovirus expression system incubated for 1 hr by TR-FRET assay

Sequence of Calcium/calmodulin-dependent protein kinase type II subunit delta (Q13557 whole entry): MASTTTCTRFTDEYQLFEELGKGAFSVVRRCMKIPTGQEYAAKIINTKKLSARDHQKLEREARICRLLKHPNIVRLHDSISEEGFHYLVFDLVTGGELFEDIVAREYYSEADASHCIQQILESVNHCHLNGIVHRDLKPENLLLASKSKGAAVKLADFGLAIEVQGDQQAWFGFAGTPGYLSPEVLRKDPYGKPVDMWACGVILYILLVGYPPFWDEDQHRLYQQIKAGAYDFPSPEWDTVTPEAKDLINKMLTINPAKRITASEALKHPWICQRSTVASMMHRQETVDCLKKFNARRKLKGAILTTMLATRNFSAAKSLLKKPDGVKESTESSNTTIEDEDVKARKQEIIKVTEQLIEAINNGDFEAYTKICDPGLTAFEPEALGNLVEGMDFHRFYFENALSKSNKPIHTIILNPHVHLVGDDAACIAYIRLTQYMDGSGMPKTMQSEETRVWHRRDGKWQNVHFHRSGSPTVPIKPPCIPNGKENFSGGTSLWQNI
Sequence of Tyrosine-protein kinase ITK/TSK (Q08881 whole entry): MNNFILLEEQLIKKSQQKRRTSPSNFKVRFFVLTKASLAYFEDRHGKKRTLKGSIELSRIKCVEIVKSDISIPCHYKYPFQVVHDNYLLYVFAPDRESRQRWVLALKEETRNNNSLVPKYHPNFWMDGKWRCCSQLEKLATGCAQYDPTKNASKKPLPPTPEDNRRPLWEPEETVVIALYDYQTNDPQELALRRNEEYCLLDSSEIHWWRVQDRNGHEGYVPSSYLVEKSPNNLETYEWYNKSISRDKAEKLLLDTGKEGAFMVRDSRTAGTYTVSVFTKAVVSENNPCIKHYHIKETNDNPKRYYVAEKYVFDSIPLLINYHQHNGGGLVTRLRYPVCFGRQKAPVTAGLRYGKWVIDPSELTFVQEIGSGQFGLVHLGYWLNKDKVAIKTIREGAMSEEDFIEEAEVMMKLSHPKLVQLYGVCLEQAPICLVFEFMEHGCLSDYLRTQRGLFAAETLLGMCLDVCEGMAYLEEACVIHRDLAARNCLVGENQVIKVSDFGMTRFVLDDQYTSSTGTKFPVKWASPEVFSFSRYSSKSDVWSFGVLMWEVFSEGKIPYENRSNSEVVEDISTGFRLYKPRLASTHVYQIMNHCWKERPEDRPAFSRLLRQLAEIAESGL
Sequence of High affinity nerve growth factor receptor (P04629 whole entry, the tested form may be a part): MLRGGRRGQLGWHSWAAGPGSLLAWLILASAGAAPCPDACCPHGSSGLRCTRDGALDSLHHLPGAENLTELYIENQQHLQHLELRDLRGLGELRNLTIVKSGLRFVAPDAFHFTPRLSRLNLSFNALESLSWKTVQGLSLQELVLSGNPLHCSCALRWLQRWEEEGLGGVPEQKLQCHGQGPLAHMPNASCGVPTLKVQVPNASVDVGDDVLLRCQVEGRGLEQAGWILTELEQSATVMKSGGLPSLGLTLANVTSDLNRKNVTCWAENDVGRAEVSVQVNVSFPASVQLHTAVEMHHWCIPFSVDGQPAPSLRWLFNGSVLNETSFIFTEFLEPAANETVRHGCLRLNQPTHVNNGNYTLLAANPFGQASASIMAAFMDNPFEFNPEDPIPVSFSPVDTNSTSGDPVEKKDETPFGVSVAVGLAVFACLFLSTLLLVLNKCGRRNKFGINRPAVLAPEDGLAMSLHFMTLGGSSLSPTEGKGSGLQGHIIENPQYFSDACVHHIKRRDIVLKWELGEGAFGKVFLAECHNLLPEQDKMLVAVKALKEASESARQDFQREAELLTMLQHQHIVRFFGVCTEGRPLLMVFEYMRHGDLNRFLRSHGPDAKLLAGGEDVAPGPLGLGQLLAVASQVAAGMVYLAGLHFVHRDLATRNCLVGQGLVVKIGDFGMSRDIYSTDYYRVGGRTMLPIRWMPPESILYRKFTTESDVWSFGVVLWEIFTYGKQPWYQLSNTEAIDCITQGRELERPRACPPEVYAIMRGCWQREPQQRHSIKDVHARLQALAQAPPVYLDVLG
Sequence of Protein-tyrosine kinase 2-beta (Q14289 whole entry, the tested form may be a part): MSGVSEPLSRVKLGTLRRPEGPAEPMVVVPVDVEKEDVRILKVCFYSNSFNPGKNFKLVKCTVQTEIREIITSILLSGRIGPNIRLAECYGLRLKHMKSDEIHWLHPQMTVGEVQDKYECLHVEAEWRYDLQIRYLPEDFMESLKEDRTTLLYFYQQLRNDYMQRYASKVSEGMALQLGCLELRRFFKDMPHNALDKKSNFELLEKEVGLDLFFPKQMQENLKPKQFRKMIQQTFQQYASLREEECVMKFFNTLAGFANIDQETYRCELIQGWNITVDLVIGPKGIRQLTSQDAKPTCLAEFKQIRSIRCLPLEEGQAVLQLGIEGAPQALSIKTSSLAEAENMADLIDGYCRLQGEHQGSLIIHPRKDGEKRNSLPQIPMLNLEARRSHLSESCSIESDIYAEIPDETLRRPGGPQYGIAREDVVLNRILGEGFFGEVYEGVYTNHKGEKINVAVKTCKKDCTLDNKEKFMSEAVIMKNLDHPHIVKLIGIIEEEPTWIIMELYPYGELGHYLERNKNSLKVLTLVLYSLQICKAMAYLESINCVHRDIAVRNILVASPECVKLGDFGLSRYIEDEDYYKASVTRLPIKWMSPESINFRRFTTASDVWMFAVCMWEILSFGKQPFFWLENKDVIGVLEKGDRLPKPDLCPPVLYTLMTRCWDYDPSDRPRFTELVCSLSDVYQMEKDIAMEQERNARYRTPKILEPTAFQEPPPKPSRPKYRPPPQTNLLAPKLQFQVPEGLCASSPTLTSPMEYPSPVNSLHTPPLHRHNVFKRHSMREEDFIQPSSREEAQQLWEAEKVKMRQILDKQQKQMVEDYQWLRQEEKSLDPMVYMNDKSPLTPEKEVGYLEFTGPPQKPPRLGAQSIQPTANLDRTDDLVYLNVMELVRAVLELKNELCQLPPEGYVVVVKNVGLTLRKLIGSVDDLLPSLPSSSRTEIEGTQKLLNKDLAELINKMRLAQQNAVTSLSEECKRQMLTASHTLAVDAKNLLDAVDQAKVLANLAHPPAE
Sequence of Myotonin-protein kinase (Q09013 whole entry): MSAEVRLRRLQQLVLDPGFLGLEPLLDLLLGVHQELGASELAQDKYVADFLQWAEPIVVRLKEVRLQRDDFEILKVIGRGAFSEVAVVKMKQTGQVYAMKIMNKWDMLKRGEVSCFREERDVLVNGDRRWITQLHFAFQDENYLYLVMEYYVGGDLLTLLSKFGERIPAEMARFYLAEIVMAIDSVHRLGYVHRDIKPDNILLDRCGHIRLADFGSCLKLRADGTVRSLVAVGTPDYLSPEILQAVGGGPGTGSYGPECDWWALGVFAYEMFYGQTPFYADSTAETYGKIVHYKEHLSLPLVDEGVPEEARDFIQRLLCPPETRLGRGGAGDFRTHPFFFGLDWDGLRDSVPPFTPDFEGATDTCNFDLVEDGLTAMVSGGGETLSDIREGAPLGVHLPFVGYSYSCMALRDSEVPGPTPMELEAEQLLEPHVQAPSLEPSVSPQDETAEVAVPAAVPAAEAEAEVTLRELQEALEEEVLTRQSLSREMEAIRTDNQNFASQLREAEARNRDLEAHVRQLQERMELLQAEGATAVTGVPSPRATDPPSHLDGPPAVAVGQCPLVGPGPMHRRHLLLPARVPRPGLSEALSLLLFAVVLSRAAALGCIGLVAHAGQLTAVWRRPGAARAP
Sequence of NUAK family SNF1-like kinase 2 (Q9H093 whole entry): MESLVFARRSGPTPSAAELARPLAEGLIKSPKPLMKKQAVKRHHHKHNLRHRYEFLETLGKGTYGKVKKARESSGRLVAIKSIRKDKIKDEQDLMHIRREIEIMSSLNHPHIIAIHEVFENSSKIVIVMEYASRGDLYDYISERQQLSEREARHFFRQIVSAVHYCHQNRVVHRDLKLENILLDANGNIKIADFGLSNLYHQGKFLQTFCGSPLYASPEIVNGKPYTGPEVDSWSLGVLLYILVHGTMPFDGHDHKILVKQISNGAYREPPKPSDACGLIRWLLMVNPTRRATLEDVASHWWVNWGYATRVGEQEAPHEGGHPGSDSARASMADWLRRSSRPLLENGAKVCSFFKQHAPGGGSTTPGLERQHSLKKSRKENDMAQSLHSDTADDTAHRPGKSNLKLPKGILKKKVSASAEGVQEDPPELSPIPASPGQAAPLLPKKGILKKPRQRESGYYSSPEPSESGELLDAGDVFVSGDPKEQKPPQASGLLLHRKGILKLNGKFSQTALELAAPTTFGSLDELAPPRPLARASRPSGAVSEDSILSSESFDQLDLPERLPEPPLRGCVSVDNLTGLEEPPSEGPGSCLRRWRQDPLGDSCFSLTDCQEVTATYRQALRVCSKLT
Sequence of Tyrosine-protein kinase Yes (P07947 whole entry, the tested form may be a part): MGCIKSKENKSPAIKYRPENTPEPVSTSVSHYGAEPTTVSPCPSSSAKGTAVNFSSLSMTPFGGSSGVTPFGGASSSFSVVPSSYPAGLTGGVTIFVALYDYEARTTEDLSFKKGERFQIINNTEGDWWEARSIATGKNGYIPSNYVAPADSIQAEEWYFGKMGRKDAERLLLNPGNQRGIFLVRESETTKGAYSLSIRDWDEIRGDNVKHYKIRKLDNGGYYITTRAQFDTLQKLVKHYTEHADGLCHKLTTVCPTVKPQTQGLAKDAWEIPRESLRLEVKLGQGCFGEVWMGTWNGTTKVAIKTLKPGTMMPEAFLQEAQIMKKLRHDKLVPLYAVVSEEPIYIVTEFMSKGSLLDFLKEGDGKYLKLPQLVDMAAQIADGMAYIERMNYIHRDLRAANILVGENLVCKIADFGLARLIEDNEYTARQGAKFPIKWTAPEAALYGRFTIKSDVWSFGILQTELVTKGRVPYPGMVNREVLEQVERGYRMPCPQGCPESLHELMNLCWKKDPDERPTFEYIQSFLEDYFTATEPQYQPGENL

| SMILES | Kd [1] [nM] | Kd [2] [nM] | Kd [3] [nM] | Kd [4] [nM] | Kd [5] [nM] | Kd [6] [nM] | Kd [7] [nM] | Kd [8] [nM] | Kd [9] [nM] | Kd [10] [nM] | Kd [11] [nM] | Kd [12] [nM] | Kd [13] [nM] | Kd [14] [nM] | Kd [15] [nM] | Kd [16] [nM] | Kd [17] [nM] | Kd [18] [nM] | Kd [19] [nM] | Kd [20] [nM] | further results |
| --- | --- | --- | --- | --- | --- | --- | --- | --- | --- | --- | --- | --- | --- | --- | --- | --- | --- | --- | --- | --- | --- |
| CO[C@@H]1[C@H](NCCOCCOCCOCCNC(=O)CCC2=[N+]3C(=Cc4c(C)cc(C)n4[B-]3(F)F)C=C2)C[C@H]2O[C@]1(C)n1c3ccccc3c3c4c(c5c6ccccc6n2c5c31)C(=O)NC4 | 4 | 92 | 894 | 136 | 601 | 230 | 90 | 63 | 6 | 586 | 121 | 15 | 1860 | 424 | 59 | 40 | 11 | 35 | 116 | 379 | Kd [21]: 687 nM; Kd [22]: 135 nM; Kd [23]: 10 nM; Kd [24]: 13 nM |
| CO[C@@H]1[C@H](N(C)CCOCCOCCOCCNC(=O)CCC2=[N+]3C(=Cc4c(C)cc(C)n4[B-]3(F)F)C=C2)C[C@H]2O[C@]1(C)n1c3ccccc3c3c4c(c5c6ccccc6n2c5c31)C(=O)NC4 | 6 | 43 | 819 | 248 | > 2000 | 172 | 94 | 45 | 3 | 588 | 97 | 9 | 1690 | 472 | 73 | 53 | 14 | 25 | 42 | 765 | Kd [21]: 983 nM; Kd [22]: 311 nM; Kd [23]: 11 nM; Kd [24]: 15 nM |
